Test results as given in publication PMC3151534 (Bioorganic & medicinal chemistry, 2010).
“And” between values parts separate entries of the source, which are not always exact repeats. Equal entries are not always repeated.

Experiments:
[1] = system: STAT3–STAT3:DNA binding activity in NIH3T3/vSrc; type: cell-based, mouse; conditions: 100 μM; for suppression of STAT3-DNA binding activity (in words): 6 and 24 hrs
[2] = Permeability and efflux analysis in Caco-2 cells; conditions: human
STAT3-SH2 domain = STAT3-SH2 domain (Mus musculus, UniProt P42227); test: STAT3 fluorescence polarization; type: binding, murine; conditions: non-phosphorylated analogs; data not shown
STAT5 = STAT5 fluorescence polarization; type: binding; conditions: data not shown
in vitro = conditions: human; for recovery at 90 min, 10 μM: Caco-2
gp130 (Homo sapiens) = gp130 (Homo sapiens) (UniProt P40189); test: SPR; conditions: cited from earlier work
[3] = system: DU145, Panc-1, NIH3T3/vSrc and MDA468 cells; type: cell-based; conditions: 24 hrs, lower concentrations; data not shown
tumor cells = conditions: cited from earlier work

Sequence of STAT3-SH2 domain (P42227 whole entry, the tested form may be a part): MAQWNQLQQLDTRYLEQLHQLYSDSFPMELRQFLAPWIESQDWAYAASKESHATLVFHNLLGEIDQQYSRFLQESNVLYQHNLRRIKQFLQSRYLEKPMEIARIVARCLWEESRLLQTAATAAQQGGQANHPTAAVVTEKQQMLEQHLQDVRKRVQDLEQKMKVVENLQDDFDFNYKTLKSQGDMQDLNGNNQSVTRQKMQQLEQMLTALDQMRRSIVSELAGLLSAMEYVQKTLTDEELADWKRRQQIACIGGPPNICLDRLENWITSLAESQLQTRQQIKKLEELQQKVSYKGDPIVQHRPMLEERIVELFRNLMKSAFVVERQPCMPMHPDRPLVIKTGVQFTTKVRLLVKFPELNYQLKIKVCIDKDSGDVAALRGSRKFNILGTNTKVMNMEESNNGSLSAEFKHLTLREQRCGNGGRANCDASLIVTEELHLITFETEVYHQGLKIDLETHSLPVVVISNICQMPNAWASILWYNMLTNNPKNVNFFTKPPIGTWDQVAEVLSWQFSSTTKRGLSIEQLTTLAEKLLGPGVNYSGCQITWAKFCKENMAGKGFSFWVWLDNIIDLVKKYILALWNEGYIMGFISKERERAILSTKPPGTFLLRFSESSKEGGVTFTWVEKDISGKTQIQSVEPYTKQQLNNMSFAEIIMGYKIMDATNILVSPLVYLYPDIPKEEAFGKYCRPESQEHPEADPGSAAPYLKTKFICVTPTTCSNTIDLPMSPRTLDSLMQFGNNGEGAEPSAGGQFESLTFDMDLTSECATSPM
Sequence of STAT3 (P40763 2-770): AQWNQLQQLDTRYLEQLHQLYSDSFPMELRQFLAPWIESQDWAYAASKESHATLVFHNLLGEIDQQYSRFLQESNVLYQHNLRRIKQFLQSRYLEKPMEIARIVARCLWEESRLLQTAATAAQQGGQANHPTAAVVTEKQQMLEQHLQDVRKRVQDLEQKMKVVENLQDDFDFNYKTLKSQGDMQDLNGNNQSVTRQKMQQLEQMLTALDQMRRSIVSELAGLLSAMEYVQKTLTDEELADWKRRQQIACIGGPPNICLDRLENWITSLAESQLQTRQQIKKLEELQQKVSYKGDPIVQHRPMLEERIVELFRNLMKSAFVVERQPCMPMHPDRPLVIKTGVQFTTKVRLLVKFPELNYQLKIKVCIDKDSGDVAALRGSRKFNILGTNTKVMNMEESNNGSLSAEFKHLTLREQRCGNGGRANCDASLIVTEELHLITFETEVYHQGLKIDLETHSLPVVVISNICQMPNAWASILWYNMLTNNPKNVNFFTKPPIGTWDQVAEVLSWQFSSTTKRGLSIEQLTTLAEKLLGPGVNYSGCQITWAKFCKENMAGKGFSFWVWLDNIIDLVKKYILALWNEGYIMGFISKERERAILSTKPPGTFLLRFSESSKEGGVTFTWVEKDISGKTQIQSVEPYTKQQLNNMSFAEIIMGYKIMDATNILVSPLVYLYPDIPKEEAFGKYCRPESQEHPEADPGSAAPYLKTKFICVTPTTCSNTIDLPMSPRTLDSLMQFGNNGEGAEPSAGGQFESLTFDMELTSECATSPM
Sequence of gp130 (Homo sapiens) (P40189 whole entry, looked up): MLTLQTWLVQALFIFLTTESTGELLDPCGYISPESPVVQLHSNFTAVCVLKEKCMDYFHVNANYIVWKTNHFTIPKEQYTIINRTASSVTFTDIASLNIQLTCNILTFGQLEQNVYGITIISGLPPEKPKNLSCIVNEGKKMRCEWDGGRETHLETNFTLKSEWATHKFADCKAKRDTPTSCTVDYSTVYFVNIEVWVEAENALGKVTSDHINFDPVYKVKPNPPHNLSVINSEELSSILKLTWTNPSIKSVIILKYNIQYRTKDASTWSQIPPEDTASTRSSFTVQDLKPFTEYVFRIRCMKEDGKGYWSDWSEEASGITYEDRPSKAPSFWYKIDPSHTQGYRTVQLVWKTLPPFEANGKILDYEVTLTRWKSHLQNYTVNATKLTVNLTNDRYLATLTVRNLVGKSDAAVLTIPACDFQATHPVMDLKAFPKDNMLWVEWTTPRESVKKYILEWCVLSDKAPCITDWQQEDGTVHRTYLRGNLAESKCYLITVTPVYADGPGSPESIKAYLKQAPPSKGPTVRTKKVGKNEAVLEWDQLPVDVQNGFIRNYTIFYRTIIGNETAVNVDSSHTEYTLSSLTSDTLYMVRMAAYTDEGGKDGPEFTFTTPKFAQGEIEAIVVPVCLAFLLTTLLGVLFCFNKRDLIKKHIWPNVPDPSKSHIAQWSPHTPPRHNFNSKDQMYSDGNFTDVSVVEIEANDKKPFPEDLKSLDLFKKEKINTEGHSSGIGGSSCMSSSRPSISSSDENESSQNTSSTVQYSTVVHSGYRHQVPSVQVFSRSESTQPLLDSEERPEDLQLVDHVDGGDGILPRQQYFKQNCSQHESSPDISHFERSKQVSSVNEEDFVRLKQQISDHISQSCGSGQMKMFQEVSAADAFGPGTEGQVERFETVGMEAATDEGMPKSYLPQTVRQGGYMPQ

Compound | suppression of STAT3-DNA binding activity (in words) [1] | Papp at 90 min, 10 μM [2] [nm/s] | inhibition of the STAT3–phosphopeptide complex (FP) (STAT3-SH2 domain) | STAT3 activity after 24 h [1] | effect on STAT5 in FP assay (STAT5) | recovery at 90 min, 10 μM (in vitro) [%] | further results
CC(C)C[C@H](NC(=O)[C@H](Cc1ccc(O)cc1)NC(=O)c1ccc(C#N)cc1)C(=O)Nc1cc(C(=O)NCc2ccccc2)cc(-c2ccc(C(N)=O)cc2)c1 [Inhibitor 14ba-OH, N^3-benzyl-5-((S)-2-((S)-2-(4-cyanobenzamido)-3-(4-hydroxyphenyl)propanamido)-4-methylpentanamido)-[1,1′-biphenyl]-3,4′-dicarboxamide] | negligible disruption | < 20 | neither peptidomimetic inhibited |  |  |  | 
CC(C)C[C@H](NC(=O)[C@H](Cc1ccc(OP(=O)(O)O)cc1)NC(=O)c1ccc(C#N)cc1)C(=O)Nc1ccc(C(=O)NCc2ccccc2)c(-c2ccc(C(N)=O)cc2)c1 [Inhibitor 14aa, 4-((S)-3-((S)-1-(6-(benzylcarbamoyl)-4′-carbamoylbiphenyl-3-ylamino)-4-methyl-1-oxopentan-2-ylamino)-2-(4-cyanobenzamido)-3-oxopropyl)phenyl dihydrogen phosphate] |  |  |  | partially recovered | no effect | 1 to 2 | suppression of STAT3-DNA binding activity ([1]; after 6 h): 80% and > 80%
STAT3 (from UniProt P40763) |  |  |  |  |  |  | Kd (gp130 (Homo sapiens)): 0.024 µM
CC(C)C[C@H](NC(=O)[C@H](Cc1ccc(OP(=O)(O)O)cc1)NC(=O)c1ccc(C#N)cc1)C(=O)Nc1cc(C(=O)NCc2ccccc2)cc(-c2ccc(C(N)=O)cc2)c1 [Inhibitor 14ba, 4-((S)-3-(((S)-1-((5-(benzylcarbamoyl)-4′-carbamoyl-[1,1′-biphenyl]-3-yl)amino)-4-methyl-1-oxopentan-2-yl)amino)-2-(4-cyanobenzamido)-3-oxopropyl)phenyl dihydrogen phosphate] |  |  |  | partially recovered | no effect | 1 to 2 | anti-cancer activity (cell viability, in words) [3]: only limited anti-cancer activity; Papp A→B at 90 min, 10 μM (in vitro; Caco-2, pH 7.4): < 5 nm/s
CC(C)C[C@H](NC(=O)[C@H](Cc1ccc(OP(=O)(O)O)cc1)NC(=O)c1ccc(C#N)cc1)C(=O)O [ISS610] |  |  |  |  |  |  | dosage required for cellular activities (tumor cells): mM dosages
CC(C)C[C@H](NC(=O)[C@H](Cc1ccc(O)cc1)NC(=O)c1ccc(C#N)cc1)C(=O)Nc1ccc(C(=O)NCc2ccccc2)c(-c2ccc(C(N)=O)cc2)c1 [Inhibitor 14aa-OH] | almost the same potency as 14aa | < 20 | neither peptidomimetic inhibited |  |  |  | 
